Test results from US20050289663A1, “Method of constructing orchid haploid by treating unfertilized orchid flower with auxin and method of growing orchid” (SAPPORO BREWERIES LIMITED, priority 2002, published 2005).

How the values were obtained:
[1] = system: Bletilla. Brigantes “H5-11”; assay: Auxin treatment of unfertilized orchid flowers: parthenogenetic seed formation, germination and ploidy check (flow cytometry, chromosome count); type: in vivo
Description: In the first embodiment, Bletilla. Brigantes “H5-11” was used. The supplied testing plants were grown in the conventional method. The blooming was affirmed, pollens were removed and a treatment of dropping of 10 micro liter was performed with the warmed lanolin paste which contains 2% of α-naphthaleneacetic acid at column using the syringe. Since two or more flowers might exist in the same inflorescence, the above-mentioned treatment was performed about for each one repeatedly five or more times. After individuals in which its ovary got fat are ripened completely (6 to 7 months after the treatment), then they were obtained, they were sterilized their surface for 5 minutes with 0.5% of sodium hydrochlorite solution, planted them on a medium in germfree container, and the germination was forced. After planting, when the number of planted seeds and the number of seed with embryo were observed, 11 seeds with embryo were observed out of 7000 of the planted total number of seeds. […] After plants originating in auxin treatment grew in the suitable size for sampling (1 to 2 months after germination), DNA contents of these plants originating in auxin treatment were measured by flow cytometry, then chromosomes were observed simultaneously and the number of chromosomes was investigated. The investigation was done by obtaining new leaf of seedling, plants treated with α-naphthaleneacetic acid (NAA) of the present invention were investigated and also plants originating in self-pollination were investigated as a comparison. FIG. 2 is views showing results of analysis based on flow cytometry. FIG. 3 is views showing observation results of chromosomes under a microscope.

[2] = system: Zygopetalum; details: given to stigma of Zygopetalum; cited from earlier work

O=C(O)Cc1cccc2ccccc12 [α-naphthaleneacetic acid]
number of chromosomes of the plant originating in auxin treatment ([1]; 1 to 2 months after germination, microscope, 32 chromosomes for Bletilla Bringantes): 16 | DNA amount by flow cytometry: peak position versus plant originating in self-pollination ([1]; 1 to 2 months after germination, new leaf of seedling): half ploidy level | buds of plants originating in auxin treatment observed in the seeds with embryo ([1]; 2 weeks after planting of seeds, from the 11 seeds with embryo): 8 | DNA contents by flow cytometry: peak position versus plants originating in self-pollination ([1]; 5 to 6 months after germination): almost same position | number of seeds with embryo ([1]; out of 7000 of the planted total number of seeds, 10 micro liter lanolin paste containing 2% α-naphthaleneacetic acid dropped at column of unfertilized flower): 11 | induction of parthenogenesis [2]: parthenogenesis has been induced
